Test results from patent US20230278972A1, “SUBSTITUTED HALOALKYL SULFONANILIDE HERBICIDES” (FMC Corporation, priority 2020, published 2023).

What was measured:
Type in all cases: in vivo
[1] = test system: Ryegrass, Italian (Italian ryegrass, Lolium multiflorum); assay: Test A preemergence, Ryegrass, Italian; conditions: Preemergence; for Ryegrass, Italian plant response rating: visual injury on 0 to 100 scale (0 no effect, 100 complete control), approximately 10 days; for Plant response rating, Ryegrass, Italian: 0 to 100 scale (0 no effect, 100 complete control)
Method in brief: (§1)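 Test chemicals, formulated in a non-phytotoxic solvent mixture with surfactant, were sprayed postemergence on plants 2 to 10 cm tall at the one- to two-leaf stage. Preemergence treatment was a directed soil spray onto freshly seeded pots. Both used a loam soil and sand blend.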

[2] = test system: wheat (Triticum aestivum); assay: Test A postemergence, wheat; conditions: Postemergence, 0 to 100 scale (0 no effect, 100 complete control)
Method in brief: (§2)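 Greenhouse pot test in a loam–sand blend; compounds delivered in a non-phytotoxic solvent carrying a surfactant, applied either as a directed spray to soil at seeding or over seedlings 2 to 10 cm high with one to two leaves.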

[3] = test system: galium (catchweed bedstraw, Galium aparine); assay: Test A postemergence, galium; conditions: Postemergence, 0 to 100 scale (0 no effect, 100 complete control)
Method in brief: as §2

[4] = test system: ragweed (common ragweed, Ambrosia artemisiifolia); assay: Test A postemergence, ragweed; conditions: Postemergence, 0 to 100 scale (0 no effect, 100 complete control)
Method in brief: as §1

[5] = test system: Ryegrass, Italian (Italian ryegrass, Lolium multiflorum); assay: Test A postemergence, Ryegrass, Italian; conditions: Postemergence, 0 to 100 scale (0 no effect, 100 complete control)
Method in brief: as §1

[6] = test system: kochia (Bassia scoparia); assay: Test A preemergence, kochia; conditions: Preemergence; for Kochia plant response rating: visual injury on 0 to 100 scale (0 no effect, 100 complete control), approximately 10 days; for Plant response rating, Kochia: 0 to 100 scale (0 no effect, 100 complete control)
Method in brief: as §1

[7] = test system: barnyardgrass (Echinochloa crus-galli); assay: Test A preemergence, barnyardgrass; conditions: Preemergence; for Barnyardgrass plant response rating: visual injury on 0 to 100 scale (0 no effect, 100 complete control), approximately 10 days; for Plant response rating, Barnyardgrass: 0 to 100 scale (0 no effect, 100 complete control)
Method in brief: as §1

[8] = test system: corn (Zea mays); assay: Test A postemergence, corn; conditions: Postemergence, 0 to 100 scale (0 no effect, 100 complete control)
Method in brief: as §1

[9] = test system: Foxtail, Giant (giant foxtail, Setaria faberi); assay: Test A preemergence, Foxtail, Giant; conditions: Preemergence; for Foxtail, Giant plant response rating: visual injury on 0 to 100 scale (0 no effect, 100 complete control), approximately 10 days; for Plant response rating, Foxtail, Giant: 0 to 100 scale (0 no effect, 100 complete control)
Method in brief: as §1

[10] = test system: pigweed (Amaranthus retroflexus); assay: Test A postemergence, pigweed; conditions: Postemergence, 0 to 100 scale (0 no effect, 100 complete control)
Method in brief: as §1

[11] = test system: Foxtail, Giant (giant foxtail, Setaria faberi); assay: Test A postemergence, Foxtail, Giant; conditions: Postemergence, 0 to 100 scale (0 no effect, 100 complete control)
Method in brief: as §1

[12] = test system: blackgrass (Alopecurus myosuroides); assay: Test A postemergence, blackgrass; conditions: Postemergence, 0 to 100 scale (0 no effect, 100 complete control)
Method in brief: as §1

[13] = test system: kochia (Bassia scoparia); assay: Test A postemergence, kochia; conditions: Postemergence, 0 to 100 scale (0 no effect, 100 complete control)
Method in brief: as §1

[14] = test system: pigweed (Amaranthus retroflexus); assay: Test A preemergence, pigweed; conditions: for Pigweed plant response rating: visual injury on 0 to 100 scale (0 no effect, 100 complete control), approximately 10 days; for Plant response rating, Pigweed: 0 to 100 scale (0 no effect, 100 complete control)
Method in brief: as §2

[15] = test system: barnyardgrass (Echinochloa crus-galli); assay: Test A postemergence, barnyardgrass; conditions: Postemergence, 0 to 100 scale (0 no effect, 100 complete control)
Method in brief: as §2

[16] = test system: ragweed (common ragweed, Ambrosia artemisiifolia); assay: Test A preemergence, ragweed; conditions: Preemergence; for Ragweed plant response rating: visual injury on 0 to 100 scale (0 no effect, 100 complete control), approximately 10 days; for Plant response rating, Ragweed: 0 to 100 scale (0 no effect, 100 complete control)
Method in brief: as §1

[17] = 125 g ai/ha, visual injury approx. 10 days
[18] = 500 g ai/ha, visual injury vs untreated controls after approx. 10 days
[19] = 125 g ai/ha, visual injury, approx. 10 days
[20] = 500 g ai/ha, visual injury approx. 10 days
[21] = 500 g ai/ha, visual injury, approx. 10 days

SMILES: CCn1nc(C)cc(-c2cc(NS(=O)(=O)C(F)(F)F)c(C)cc2C)c1=O [Compound 68]
- Ryegrass, Italian plant response rating ([1]; 125 g ai/ha): 90
- Plant response rating, Ryegrass, Italian ([1]; 500 g ai/ha): 100
- Plant response rating, Wheat [2, 17]: 70
- Wheat plant response rating [2, 18]: 80
- Plant response rating, Galium [3, 17]: 50
- Galium plant response rating [3, 18]: 80
- Plant response rating, Ragweed [4, 17]: 50
- Ragweed plant response rating [4, 18]: 80
- Plant response rating, Ryegrass, Italian [5, 17]: 40
- Ryegrass, Italian plant response rating [5, 18]: 80
- Kochia plant response rating ([6]; 125 g ai/ha): 70
- Plant response rating, Kochia ([6]; 500 g ai/ha): 90
- Barnyardgrass plant response rating ([7]; 125 g ai/ha): 100
- Plant response rating, Barnyardgrass ([7]; 500 g ai/ha): 100
- Plant response rating, Corn [8, 17]: 10
- Corn plant response rating [8, 18]: 20
- Foxtail, Giant plant response rating ([9]; 125 g ai/ha): 100
- Plant response rating, Foxtail, Giant ([9]; 500 g ai/ha): 100
- Plant response rating, Pigweed [10, 17]: 20
- Pigweed plant response rating [10, 18]: 50
- Plant response rating, Foxtail, Giant [11, 17]: 20
- Foxtail, Giant plant response rating [11, 18]: 90
- Plant response rating, Blackgrass [12, 17]: 70
- Blackgrass plant response rating [12, 18]: 70
- Plant response rating, Kochia [13, 17]: 10
- Kochia plant response rating [13, 18]: 50
- Pigweed plant response rating ([14]; 125 g ai/ha): 70
- Plant response rating, Pigweed ([14]; 500 g ai/ha): 90
- Plant response rating, Barnyardgrass [15, 17]: 60
- Barnyardgrass plant response rating [15, 18]: 80
- Ragweed plant response rating ([16]; 125 g ai/ha): 30
- Plant response rating, Ragweed ([16]; 500 g ai/ha): 90

SMILES: Cc1cc(C)c(N2CC3(CCCCC3)OC2=O)cc1NS(=O)(=O)C(F)(F)F [Compound 279]
- Plant response rating, Ryegrass, Italian [1, 19]: 90
- Ryegrass, Italian plant response rating ([1]; 500 g ai/ha): 100
- Plant response rating, Wheat ([2]; 125 g ai/ha): 0
- Plant response rating, Wheat [2, 20]: 70
- Plant response rating, Galium ([3]; 125 g ai/ha): 90
- Plant response rating, Galium [3, 20]: 90
- Plant response rating, Ragweed ([4]; 125 g ai/ha): 80
- Plant response rating, Ragweed [4, 20]: 90
- Plant response rating, Ryegrass, Italian ([5]; 125 g ai/ha): 0
- Plant response rating, Ryegrass, Italian [5, 20]: 60
- Plant response rating, Kochia [6, 19]: 80
- Kochia plant response rating ([6]; 500 g ai/ha): 90
- Plant response rating, Barnyardgrass [7, 19]: 100
- Barnyardgrass plant response rating ([7]; 500 g ai/ha): 100
- Plant response rating, Corn ([8]; 125 g ai/ha): 20
- Plant response rating, Corn [8, 20]: 20
- Plant response rating, Foxtail, Giant [9, 19]: 100
- Foxtail, Giant plant response rating ([9]; 500 g ai/ha): 100
- Plant response rating, Pigweed ([10]; 125 g ai/ha): 50
- Plant response rating, Pigweed [10, 20]: 80
- Plant response rating, Foxtail, Giant ([11]; 125 g ai/ha): 10
- Plant response rating, Foxtail, Giant [11, 20]: 30
- Plant response rating, Blackgrass ([12]; 125 g ai/ha): 0
- Plant response rating, Blackgrass [12, 20]: 20
- Plant response rating, Kochia ([13]; 125 g ai/ha): 40
- Plant response rating, Kochia [13, 20]: 50
- Plant response rating, Pigweed [14, 19]: 90
- Pigweed plant response rating ([14]; 500 g ai/ha): 100
- Plant response rating, Barnyardgrass ([15]; 125 g ai/ha): 20
- Plant response rating, Barnyardgrass [15, 20]: 80
- Plant response rating, Ragweed [16, 19]: 100
- Ragweed plant response rating ([16]; 500 g ai/ha): 100

SMILES: CCn1cc(-c2cc(N(S(=O)(=O)C(F)(F)F)S(=O)(=O)C(F)(F)F)c(C)cc2C)c(=O)n(CC)c1=O [Compound 43]
- Ryegrass, Italian plant response rating ([1]; 125 g ai/ha): 100
- Plant response rating, Ryegrass, Italian ([1]; 500 g ai/ha): 100
- Plant response rating, Wheat [2, 17]: 70
- Plant response rating, Wheat [2, 21]: 70
- Plant response rating, Galium [3, 17]: 70
- Plant response rating, Galium [3, 21]: 90
- Plant response rating, Ragweed [4, 17]: 60
- Plant response rating, Ragweed [4, 21]: 60
- Plant response rating, Ryegrass, Italian [5, 17]: 20
- Plant response rating, Ryegrass, Italian [5, 21]: 50
- Kochia plant response rating ([6]; 125 g ai/ha): 0
- Plant response rating, Kochia ([6]; 500 g ai/ha): 90
- Barnyardgrass plant response rating ([7]; 125 g ai/ha): 90
- Plant response rating, Barnyardgrass ([7]; 500 g ai/ha): 100
- Plant response rating, Corn [8, 17]: 10
- Plant response rating, Corn [8, 21]: 80
- Foxtail, Giant plant response rating ([9]; 125 g ai/ha): 100
- Plant response rating, Foxtail, Giant ([9]; 500 g ai/ha): 100
- Plant response rating, Pigweed [10, 17]: 80
- Plant response rating, Pigweed [10, 21]: 80
- Plant response rating, Foxtail, Giant [11, 17]: 90
- Plant response rating, Foxtail, Giant [11, 21]: 90
- Plant response rating, Blackgrass [12, 17]: 70
- Plant response rating, Blackgrass [12, 21]: 90
- Plant response rating, Kochia [13, 17]: 20
- Plant response rating, Kochia [13, 21]: 40
- Pigweed plant response rating ([14]; 125 g ai/ha): 20
- Plant response rating, Pigweed ([14]; 500 g ai/ha): 60
- Plant response rating, Barnyardgrass [15, 17]: 90
- Plant response rating, Barnyardgrass [15, 21]: 90
- Ragweed plant response rating ([16]; 125 g ai/ha): 0
- Plant response rating, Ragweed ([16]; 500 g ai/ha): 0
